In patent US5734012A, “Cyclic motilin-like polypeptides with gastrointestinal motor stimulating activity” (Ohmeda Pharmaceutical Products Division Inc., priority 1996, dated 1998):
Where two headings read alike, the source gives them in different places. Positions of bridges follow the written chain, without caps; N, C: chain ends. Non-standard residues stand in square brackets, D forms with d. Residues, ends and D or L forms follow the SMILES beside them. *: point of attachment. X1 = C[N+](C)(C)[C@@H](Cc1ccccc1)C(=O)*; NMeF = CN[C@@H](Cc1ccccc1)C(=O)O; dNMeF = CN[C@H](Cc1ccccc1)C(=O)O

How the values were obtained:
[1] = biological target: rabbit duodenal smooth muscle strip (Oryctolagus cuniculus, UniProt G1T803); experiment: Rabbit duodenal smooth muscle strip tissue bath assay (contractility); assay type: cell-based; conditions: negative logarithm of dose giving 50% of maximal response to motilin; isotonic contraction of rabbit duodenum segments
Description: The experimental protocol consisted of an equilibration period of 1 hour; a challenge with 10^-4 M acetylcholine followed by a wash-out period; a cumulative dose-response curve of a compound with, at the end, the addition of 10^-7 M motilin; and finally 10^-4 M acetylcholine. If the final response to 10^-4 M acetylcholine differed by more than 5% from the initial response, the results were discarded.

motilin receptor = biological target: T1, motilin receptor (Oryctolagus cuniculus, UniProt G1T803); experiment: Motilin receptor binding affinity (displacement of [125I-Tyr7,Nle13]motilin(porcine)); set-up: species or system rabbit
T1 construct: from tissue; host or cells: rabbit antral smooth muscle membranes
Description: The motilin receptor binding affinity of the peptides of this invention was determined by using the general procedure of Bormans, Peeters and Vantrappen, Regul. […] Fitting was performed using the iterative least-squares procedure of the SAS-software package (SAS Institute, Inc., Cary, N.C., USA).

[2] = In vitro stability testing in 2% hog kidney homogenate; assay type: in vitro ADME; conditions: for half-life at 0.5 mg/ml: pig, kidney or brush border membranes
Description: Like most small linear polypeptides, motilin is believed to be metabolized by the brush border cells of the kidney. Therefore, kidney homogenate was chosen as the model system for assessing the relative in vivo biostability of the peptides of this invention. All peptides to be studied were incubated in hog kidney (Pel Freeze, Inc., Rogers, Ark.) (2% w/v; final volume=4 mls; buffer=HEPES pH 7.0) at 25° C. […] In order to determine suitable incubation times and sampling intervals, two experiments were conducted with each polypeptide. The first run served as a rough estimate of peptide stability. All sampling was performed in duplicate. Sample volume was 180 μl. Sample clean-up was performed by addition of 20 μl of 100% TCA (final volume=200 μl; final TCA concentration=10%). The sample was vortexed from 5 to 10 seconds to ensure equilibration, then centrifuged to spin out the precipitated proteins. Analysis was carried out on a Waters HPLC system with autoinjector, a 5 μVydac C-18 analytical column, and a Waters 481 UV detector set at 214 nm. Injection volume was 80 μl. Initial solvent conditions were 20% acetonitrile / 80% (0.1%) TFA in Milli-Q water with a 35 minute gradient running to 63% acetonitrile / 37% (0.1%) TFA at 1 ml/min. Polypeptide substrate and metabolite peaks were ratioed to the internal standard and the duplicate sample ratios were averaged. The average ratio for the peptide substrate was expressed as a percentage and plotted versus time. First-order kinetics was assumed for data treatment. The rate of disappearance of the substrate was calculated using the Enzfitter program (Biosoft). Relative half-lives were determined from the relationship: […]

[3] = negative logarithm of concentration displacing 50% of [125I-Tyr7,Nle13]motilin(porcine) bound to rabbit antral smooth muscle membranes, read-out: pIC50 (converted)

Chain of rabbit duodenal smooth muscle strip (G1T803 1-400): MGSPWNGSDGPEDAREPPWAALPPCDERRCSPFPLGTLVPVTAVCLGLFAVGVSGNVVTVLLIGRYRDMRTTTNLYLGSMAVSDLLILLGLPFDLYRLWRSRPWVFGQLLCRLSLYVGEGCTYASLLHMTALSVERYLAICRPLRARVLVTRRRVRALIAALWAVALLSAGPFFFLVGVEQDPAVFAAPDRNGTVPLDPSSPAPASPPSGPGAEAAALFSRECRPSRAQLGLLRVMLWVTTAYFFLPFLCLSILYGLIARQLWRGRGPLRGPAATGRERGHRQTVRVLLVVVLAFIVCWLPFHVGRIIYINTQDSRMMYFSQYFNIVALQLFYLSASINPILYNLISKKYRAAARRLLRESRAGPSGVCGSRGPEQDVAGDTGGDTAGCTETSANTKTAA
T1 sequence (G1T803 1-400): as above

SMILES	pEC50 [1]	IC50 (motilin receptor; [3]) [nM]	further results
CC[C@H](C)[C@H](NC(=O)[C@@H]1CCCN1C(=O)[C@@H](NC(=O)[C@H](Cc1ccccc1)NC)C(C)C)C(=O)N[C@@H](Cc1ccccc1)C(=O)N[C@H](C(=O)N[C@@H](Cc1ccc(O)cc1)C(=O)NCC(=O)N[C@@H](CCC(=O)O)C(=O)N[C@H]1CC(=O)NCCCC[C@@H](C(=O)N[C@H](CCCCN)C(N)=O)NC(=O)[C@H](CC(C)C)NC(=O)[C@H](CCCNC(=N)N)NC(=O)[C@H](C)NC1=O)[C@@H](C)O [SEQ ID NO:9, cyclo^10,14 [N-MePhe^1,Asp^10,Ala^11,Leu^13,Lys^14,D-Lys^15]pMOT(1-15) amide] (H-[NMeF]VPIFTYGEDARLK[dK]-NH2; lactam 10-14)	7.89		IC50 (motilin receptor): 0.661 nM
CC[C@H](C)[C@H](NC(=O)[C@@H]1CCCN1C(=O)[C@@H](NC(=O)[C@@H](N)Cc1ccccc1)C(C)C)C(=O)N[C@@H](Cc1ccccc1)C(=O)N[C@H](C(=O)N[C@@H](Cc1ccc(O)cc1)C(=O)NCC(=O)N[C@@H](CCC(=O)O)C(=O)N[C@@H](CC(C)C)C(=O)N[C@@H](CCC(N)=O)C(=O)N[C@@H](CCCNC(=N)N)C(=O)N[C@@H](CC(C)C)C(=O)N[C@@H](CCC(N)=O)C(=O)O)[C@@H](C)O [SEQ ID NO:27, [Leu^13]pMOT(1-14), reference compound] (H-FVPIFTYGELQRLQ-OH; N-terminus and C-terminus assumed)			half-life at 0.5 mg/ml ([2]; pH 7): 0.125 h
CC[C@H](C)[C@H](NC(=O)[C@@H]1CCCN1C(=O)[C@@H](NC(=O)[C@@H](N)Cc1ccccc1)C(C)C)C(=O)N[C@@H](Cc1ccccc1)C(=O)N[C@H](C(=O)N[C@@H](Cc1ccc(O)cc1)C(=O)NCC(=O)N[C@@H](CCC(=O)O)C(=O)N[C@@H](CC(C)C)C(=O)N[C@@H](CCC(N)=O)C(=O)N[C@@H](CCCN=C(N)N)C(=O)N[C@@H](CC(C)C)C(=O)N[C@@H](CCC(N)=O)C(=O)N[C@@H](CCC(=O)O)C(=O)N[C@@H](CCCCN)C(=O)N[C@@H](CCC(=O)O)C(=O)N[C@@H](CCCN=C(N)N)C(=O)N[C@@H](CC(N)=O)C(=O)N[C@@H](CCCCN)C(=O)NCC(=O)N[C@@H](CCC(N)=O)C(=O)O)[C@@H](C)O [SEQ ID NO:3, [Leu^13]pMOT(1-22), reference compound] (H-FVPIFTYGELQRLQEKERNKGQ-OH)			half-life at 0.5 mg/ml ([2]; 2% w/v hog kidney homogenate, HEPES pH 7.0, 25° C., 0.5 mg/ml substrate, first-order kinetics, read-out: T1/2): 0.503 h
CC[C@H](C)[C@H](NC(=O)[C@@H]1CCCN1C(=O)[C@@H](NC(=O)[C@@H](Cc1ccccc1)NC)C(C)C)C(=O)N[C@@H](Cc1ccccc1)C(=O)N[C@H](C(=O)N[C@@H](Cc1ccc(O)cc1)C(=O)NCC(=O)N[C@@H](CCC(=O)O)C(=O)N[C@H]1CCC(=O)NCCCC[C@@H](C(N)=O)NC(=O)[C@H](CC(C)C)NC(=O)[C@H](CCCNC(=N)N)NC(=O)[C@H](CCC(N)=O)NC1=O)[C@@H](C)O [SEQ ID NO:13, cyclo^10,14 [N-Me-D-Phe^1,Glu^10,Leu^13,Lys^14 pMOT(1-14) amide] (H-[dNMeF]VPIFTYGEEQRLK-NH2; lactam 10-14)	6.87	5.5	
CC[C@H](C)[C@H](NC(=O)[C@@H]1CCCN1C(=O)[C@@H](NC(=O)[C@H](Cc1ccccc1)NC)C(C)C)C(=O)N[C@@H](Cc1ccccc1)C(=O)N[C@H](C(=O)N[C@@H](Cc1ccc(O)cc1)C(=O)NCC(=O)N[C@@H](CCC(=O)O)C(=O)N[C@H]1CC(=O)NCCCC[C@@H](C(=O)N[C@@H](CCCCN)C(N)=O)NC(=O)[C@H](CC(C)C)NC(=O)[C@H](CCCNC(=N)N)NC(=O)[C@H](C)NC1=O)[C@@H](C)O [SEQ ID NO:8, cyclo^10,14 [N-MePhe^1,Asp^10,Ala^11,Leu^13,Lys^14,Lys^15]pMOT(1-15) amide] (H-[NMeF]VPIFTYGEDARLKK-NH2; lactam 10-14)	7.69	1.1	
CC[C@H](C)[C@H](NC(=O)[C@@H]1CCCN1C(=O)[C@@H](NC(=O)[C@@H](N)Cc1ccccc1)C(C)C)C(=O)N[C@@H](Cc1ccccc1)C(=O)N[C@H](C(=O)N[C@@H](Cc1ccc(O)cc1)C(=O)NCC(=O)N[C@@H](CCC(=O)O)C(=O)N[C@H]1CC(=O)NCCCC[C@@H](C(N)=O)NC(=O)[C@H](CC(C)C)NC(=O)[C@H](CCCNC(=N)N)NC(=O)[C@H](CCC(N)=O)NC1=O)[C@@H](C)O [SEQ ID NO:6, cyclo^10,14 [Asp^10, Leu^13, Lys^14]pMOT(1-14)] (H-FVPIFTYGEDQRLK-NH2; lactam 10-14)	7.77	1.51	

More lines, main results first:

pEC50 [1]	IC50 (motilin receptor; [3]) [nM]	SMILES	further results
7.02	12.6	CC[C@H](C)[C@H](NC(=O)[C@@H]1CCCN1C(=O)[C@@H](NC(=O)[C@H](Cc1ccccc1)[N+](C)(C)C)C(C)C)C(=O)N[C@@H](Cc1ccccc1)C(=O)N[C@H](C(=O)N[C@@H](Cc1ccc(O)cc1)C(=O)NCC(=O)N[C@@H](CCC(=O)O)C(=O)N[C@H]1CC(=O)NCCCC[C@@H](C(N)=O)NC(=O)[C@H](CC(C)C)NC(=O)[C@@H](CCCNC(=N)N)NC(=O)[C@H](C)NC1=O)[C@@H](C)O [SEQ ID NO:24, cyclo^10,14 [Me3 N^+ Phe^1,Asp^10,Ala^11,D-Arg^12,Leu^13,Lys^14]pMOT(1-14) amide] (X1-VPIFTYGEDA[dR]LK-NH2; lactam 9-13)	
7.76	1.35	CC[C@H](C)[C@H](NC(=O)[C@@H]1CCCN1C(=O)[C@@H](NC(=O)[C@H](Cc1ccccc1)[N+](C)(C)C)C(C)C)C(=O)N[C@@H](Cc1ccccc1)C(=O)N[C@H](C(=O)N[C@@H](Cc1ccc(O)cc1)C(=O)NCC(=O)N[C@@H](CCC(=O)O)C(=O)N[C@H]1CCC(=O)NCCCC[C@@H](C(=O)N[C@@H](CCCCN)C(N)=O)NC(=O)[C@H](CC(C)C)NC(=O)[C@H](CCCNC(=N)N)NC(=O)[C@H](C)NC1=O)[C@@H](C)O [SEQ ID NO:21, cyclo^10,14 [Me3 N^+ Phe^1,Glu^10,Ala^11,Leu^13,Lys^14,Lys^15]pMOT(1-15) amide] (X1-VPIFTYGEEARLKK-NH2; lactam 9-13)	half-life at 0.5 mg/ml ([2]; pH 7): 4.45 h
6.98	2.24	CC[C@H](C)[C@H](NC(=O)[C@@H]1CCCN1C(=O)[C@@H](NC(=O)[C@H](Cc1ccccc1)[N+](C)(C)C)C(C)C)C(=O)N[C@@H](Cc1ccccc1)C(=O)N[C@H](C(=O)N[C@@H](Cc1ccc(O)cc1)C(=O)NCC(=O)N[C@@H](CCC(=O)O)C(=O)N[C@H]1CC(=O)NCCCC[C@@H](C(N)=O)NC(=O)[C@H](CC(C)C)NC(=O)[C@H](CCCNC(=N)N)NC(=O)[C@H](C)NC1=O)[C@@H](C)O [SEQ ID NO:16, cyclo^10,14 [Me3 N^+ Phe^1,Asp^10,Ala^11 Leu^13,Lys^14]pMOT(1-14) amide] (X1-VPIFTYGEDARLK-NH2; lactam 9-13)	half-life at 0.5 mg/ml ([2]; pH 7): 1.72 h
7.38		CC[C@H](C)[C@H](NC(=O)[C@@H]1CCCN1C(=O)[C@@H](NC(=O)[C@H](Cc1ccccc1)[N+](C)(C)C)C(C)C)C(=O)N[C@@H](Cc1ccccc1)C(=O)N[C@H](C(=O)N[C@@H](Cc1ccc(O)cc1)C(=O)NCC(=O)N[C@@H](CCC(=O)O)C(=O)N[C@H]1CCC(=O)NCCCC[C@@H](C(N)=O)NC(=O)[C@H](CC(C)C)NC(=O)[C@H](CCCNC(=N)N)NC(=O)[C@H](CCC(N)=O)NC1=O)[C@@H](C)O [SEQ ID NO:14, cyclo^10,14 [Me3 N^+ Phe^1,Glu^10,Leu^13,Lys^14]pMOT(1-14) amide] (X1-VPIFTYGEEQRLK-NH2; lactam 9-13)	T1/2 ([2]; pH 7): > 3.33 h
7.89	11.5	CC[C@H](C)[C@H](NC(=O)[C@@H]1CCCN1C(=O)[C@@H](NC(=O)[C@H](Cc1ccccc1)NC)C(C)C)C(=O)N[C@@H](Cc1ccccc1)C(=O)N[C@H](C(=O)N[C@@H](Cc1ccc(O)cc1)C(=O)NCC(=O)N[C@@H](CCC(=O)O)C(=O)N[C@H]1CC(=O)NCCCC[C@@H](C(N)=O)NC(=O)[C@H](CC(C)C)NC(=O)[C@@H](CCCNC(=N)N)NC(=O)[C@H](C)NC1=O)[C@@H](C)O [SEQ ID NO:23, cyclo^10,14 [N-MePhe^1,Asp^10,Ala^11,D-Arg^12,Leu^13,Lys^14]pMOT(1-14) amide] (H-[NMeF]VPIFTYGEDA[dR]LK-NH2; lactam 10-14)	
